Experiments:
anesthetized dogs = assay: Toxicology study: cardiovascular and respiratory function in anesthetized dogs; type: in vivo, Beagle dogs
Experimental: The effects of 3-(3,4-dimethoxy-phenyl)-3-(1-oxo-1,3-dihydro-isoindol-2-yl)-propionamide on cardiovascular and respiratory function are investigated in anesthetized dogs. Two groups of Beagle dogs (2/sex/group) are used. One group receives three doses of vehicle only and the other receives three ascending doses of the compound (200, 400, and 800 mg/kg). In all cases, doses of the compound or vehicle are successively administered via infusion through the jugular vein separated by intervals of at least 30 minutes.

[1] = tested on: TNF-α production following LPS-stimulation of human PBMC and human whole blood; assay: Modulation of cytokine production, in vitro studies; type: cell-based; conditions: compared with thalidomide
Text: In a specific embodiment, the pharmacological properties of 3-(3,4-dimethoxy-phenyl)-3-(1-oxo-1,3-dihydro-isoindol-2-yl)-propionamide are characterized in in vitro studies. Studies examine the effects of the compound on the production of various cytokines. Inhibition of TNF-α production following LPS-stimulation of human PBMC and human whole blood by the compound is investigated in vitro. […] The pharmacological effects of 3-(3,4-dimethoxy-phenyl)-3-(1-oxo-1,3-dihydro-isoindol-2-yl)-propionamide may derive from its action as an inhibitor of the generation of inflammatory cytokines.

COc1ccc(C(CC(N)=O)N2Cc3ccccc3C2=O)cc1OC (stereo not shown) [3-(3,4-dimethoxy-phenyl)-3-(1-oxo-1,3-dihydro-isoindol-2-yl)-propionamide]
cardiovascular and respiratory changes (anesthetized dogs; all doses (200, 400, and 800 mg/kg), infusion through the jugular vein, compared to vehicle control group): minimal
arterial blood pressure (anesthetized dogs; following the low dose, only statistically significant difference between vehicle and treatment groups): small increase
arterial blood pressure effect (anesthetized dogs; higher doses): not seen
pharmacological activity profile, potency relative to thalidomide [1]: five to fifty times more potent than thalidomide
